{"source": "patent US20260365662A1", "about": "“ISOANDROGRAPHOLIDE ANALOGS AND METHOD FOR TREATMENT USING THE SAME” (Enveda Therapeutics, Inc., priority 2023, published 2026)", "type_in_all_cases": "in vivo", "key": {"female BALB/c mouse [1]": {"system": "female BALB/c mouse", "test": "MC-903 induced atopic dermatitis model, prophylactic (Example 12)", "settings": "for immune cell infiltration: histopathology, back skin; for IL-31 expression: itch marker", "experimental": "Experimental details: Preclinical animal model of atopic dermatitis was developed by MC-903, a vitamin-D analogue. In the current study, the test item Compound 2 was screened to evaluate its efficacy in MC-903 induced AD model. 2 nmol of MC-903 was topically applied to 8-10 weeks old female BALB/c mouse from G2-G7 group at a volume of 50 μl/mouse on back skin on every alternate day for 14 days to induced disease. For the G1 group, (Normal+ethanol control) the same volume of ethanol that was used to solubilize MC-903 was applied. Clobetasol (0.05%, 20 mg) was applied topically once a day to G3 group animals. Compound 2 was administered twice a day to respective treatment groups (G4-G7) for 14 days. On the day of MC-903 administration, test compounds were dosed one hour prior to MC-903 insult. Clinical scores to assess the disease intensity were measured from visual examination for erythema, scaling and back skin thickness using dial caliper. All the scores were carried by blinded observers to treatment groups. Cumulative dermatitis severity scores were calculated by adding up the individual scores of erythema, scaling & thickness. On day-14 of the study, all animals were terminally bled under mild anesthesia followed by humane sacrifice and back skin tissue was dissected. Required skin tissue samples were collected in fixative and part of the tissue was flash-frozen in liquid nitrogen and stored at −80 °C. Collected tissue samples were processed and used for biomarker analysis using gene and protein expression analysis by qPCR & ELISA, pharmacokinetic analysis by LC-MS and histopathology studies."}, "female BALB/c mouse [2]": {"system": "female BALB/c mouse", "test": "Hapten-induced atopic dermatitis model (Example 13)", "settings": "for itch / number of scratches in scratch test: 10 minutes, day 13, four hours after last challenge; for immune cell infiltration: histopathology; for immune cell infiltration / epidermal thickness / histopathological changes / histopathology score: back skin; for epidermal thickness / histopathological changes / histopathology score / IL-4 expression: prophylactic; for IL-4 expression / dermatitis severity scores: vs hapten vehicle control; for dermatitis severity scores: twice a day, 14 days", "experimental": "Experimental details: Preclinical animal model of atopic dermatitis was developed by [COMPOUND LEFT OUT] [COMPOUND LEFT OUT], a Hapten. In the current study, the test item Compound 2 was screened to evaluate its efficacy in [COMPOUND LEFT OUT] induced AD model. 0.15% of [COMPOUND LEFT OUT] was topically applied to 7-8 weeks old female BALB/c mouse from G2-G7 group at a volume of 100 μl/mouse on back skin once in 3 days to induced disease. For the G1 group, (Vehicle control) the same volume of acetone and olive oil (3:1) that was used to solubilize [COMPOUND LEFT OUT] was applied. Dexamethasone (5 mg/kg, p.o, qd) was dosed per oral once a day to G3 group animals. Compound 2 was administered twice a day to respective treatment groups (G4-G6) for 14 days. On the day of [COMPOUND LEFT OUT] administration, test compounds were dosed one hour prior to [COMPOUND LEFT OUT] insult. Clinical scores to assess the disease intensity were measured from visual examination for erythema, scaling, excoriation, and back skin thickness using dial caliper. All the scores were carried by blinded observers to treatment groups. Cumulative dermatitis severity scores were calculated by adding up the individual scores of erythema, scaling, thickness & excoriation. On day-13 of the study, four hours after the last [COMPOUND LEFT OUT] challenge, scratching behavior was recorded using a web camera in acrylic observational chambers. The number of scratches were measured for 10 minutes. Later, all the animals were terminally bled under mild anesthesia followed by humane sacrifice and back skin tissue was dissected. Required skin tissue samples were collected in fixative and part of the tissue was flash-frozen in liquid nitrogen and stored at −80 °C. Collected tissue samples were processed and used for biomarker analysis using gene and protein expression analysis by qPCR & ELISA, pharmacokinetic analysis by LC-MS and histopathology studies."}, "female BALB/c mouse [3]": {"system": "female BALB/c mouse", "test": "MC-903 induced atopic dermatitis model, therapeutic mode, vs oral JAK-i (Example 15)", "settings": "twice a day; for dermatitis severity scores: vs MC-903 vehicle control", "experimental": "(§1) Experimental details: Preclinical animal model of atopic dermatitis was developed by MC-903, a vitamin-D analogue. In the current study, the test item Compound 2 was screened in therapeutic mode, to evaluate its efficacy in MC-903 induced AD model. 2 nmol of MC-903 was topically applied to 8-10 weeks old female BALB/c mouse from G2-G8 group at a volume of 50 μl/mouse on back skin on every alternate day for 14 days to induced disease. For the G1 group, (Normal+ethanol control) the same volume of ethanol that was used to solubilize MC-903 was applied. Clobetasol (0.05%, 15 mg/mouse) was applied topically once a day to G3 group animals, Upadacitinib was dosed oral twice a day at 2, 6 & 20 mg/kg to G4, G5 & G6 respectively. Compound 2 was administered twice a day to respective treatment groups (G7-G10) for 14 days. On the day of MC-903 administration, test compounds were dosed one hour prior to MC-903 insult. Clinical scores to assess the disease intensity were measured from visual examination for erythema, scaling and back skin thickness using dial caliper. All the scores were carried by blinded observers to treatment groups. Disease severity was assessed by dermatitis severity scores."}, "female BALB/c mouse [4]": {"system": "female BALB/c mouse", "test": "MC-903 induced atopic dermatitis model, therapeutic mode (Example 14)", "settings": "twice a day, vs MC-903 vehicle control", "experimental": "as §1, with “animals and Ruxolitinib (1.5%, 20 mg/mouse)” for “animals, Upadacitinib”, “applied topically” for “dosed oral”, “day” for “day at 2, 6 & 20 mg/kg”, “G4 group animals.” for “G4, G5 & G6 respectively.”, “(G4-G8)” for “(G7-G10)”, “erythema & dermatitis scaling.” for “severity scores.”"}, "[5]": {"settings": "twice a day, 14 days, vs MC-903 vehicle control"}}, "note": "“Also recorded” adds a separate entry of the source."}
{"smiles": "C[C@@]12CCC(=O)N[C@@](C)(CO)[C@H]1CC[C@@]1(C)O[C@H](C3=CCOC3=O)C[C@@H]21", "note": "[Compound 2, (2S,3aR,5aS,6R,10aR,10bS)-6-(hydroxymethyl)-3a,6,10a-trimethyl-2-(2-oxo-2,5-dihydrofuran-3-yl) dodecahydro-8H-benzofuro[5,4-c]azepin-8-one]", "values": [{"measurement": "neutrophil infiltration", "setting": "female BALB/c mouse [1]; FIG. 12C", "result": "robustly reduces"}, {"measurement": "early barrier alarmins in skin", "setting": "female BALB/c mouse [1]; FIG. 12G", "result": "reduces early barrier alarmins"}, {"measurement": "tissue cytokine expression", "setting": "female BALB/c mouse [1]; FIG. 12H", "result": "impacts tissue cytokine expression"}, {"measurement": "improvement of MC-903-induced atopic dermatitis", "setting": "female BALB/c mouse [1]; compared with high-potency topical corticosteroids", "result": "comparable to high-potency topical corticosteroids"}, {"measurement": "immune cell infiltration", "setting": "female BALB/c mouse [1]", "result": "significantly reduced"}, {"measurement": "immune cell infiltration", "setting": "female BALB/c mouse [1]; listed as compound 2", "result": "reduced dose-dependent immune cell infiltration"}, {"measurement": "histopathological changes and final histopathology scores", "setting": "female BALB/c mouse [1]; hyperkeratosis, parakeratosis, lengthening and clubbing of rete ridges, vs MC-903 vehicle control", "result": "significantly reduced"}, {"measurement": "IL-31 expression", "setting": "female BALB/c mouse [1]; prophylactic, back skin tissue", "result": "significantly reduced"}, {"measurement": "IL-31 expression", "setting": "female BALB/c mouse [1]; prophylactic, back skin tissue, listed as compound 2", "result": "decreases IL-31 expression"}, {"measurement": "NGAL levels", "setting": "female BALB/c mouse [1]; neutrophil marker, back skin tissue", "result": "significantly reduced"}, {"measurement": "NGAL levels", "setting": "female BALB/c mouse [1]; neutrophil marker, back skin tissue, listed as compound 2", "result": "significantly reduces NGAL levels"}, {"measurement": "Lipocalin-2 expression", "setting": "female BALB/c mouse [1]; neutrophil marker, prophylactic, back skin tissue", "result": "significantly reduced"}, {"measurement": "IL-4 expression", "setting": "female BALB/c mouse [1]; prophylactic, back skin tissue", "result": "significantly reduced"}, {"measurement": "IL-13 expression", "setting": "female BALB/c mouse [1]; prophylactic, back skin tissue", "result": "significantly reduced"}, {"measurement": "Krt6a expression", "setting": "female BALB/c mouse [1]; prophylactic, back skin tissue", "result": "significantly reduced"}, {"measurement": "Tissue TSLP expression", "setting": "female BALB/c mouse [1]; prophylactic, back skin tissue", "result": "significantly reduced"}, {"measurement": "dermatitis severity scores", "setting": "female BALB/c mouse [1]; [5]", "result": "dose dependent decrease"}, {"measurement": "epidermal thickness", "setting": "female BALB/c mouse [1]; [5]", "result": "significantly reduced"}, {"measurement": "epidermal thickness", "setting": "female BALB/c mouse [1]; twice a day, 14 days, vs MC-903 vehicle control, listed as compound 2", "result": "robustly reduces epidermal thickness"}, {"measurement": "itch / number of scratches in scratch test", "setting": "female BALB/c mouse [2]", "result": "reduced"}, {"measurement": "itch / number of scratches in scratch test", "setting": "female BALB/c mouse [2]; listed as compound 2", "result": "reduces itch comparably to current first line therapy"}, {"measurement": "immune cell infiltration", "setting": "female BALB/c mouse [2]", "result": "significantly reduced"}, {"measurement": "immune cell infiltration", "setting": "female BALB/c mouse [2]; listed as compound 2", "result": "reduces immune cell infiltration"}, {"measurement": "epidermal thickness", "setting": "female BALB/c mouse [2]", "result": "significantly reduced"}, {"measurement": "histopathological changes / histopathology score", "setting": "female BALB/c mouse [2]", "result": "significantly reduced"}, {"measurement": "epidermal thickness", "setting": "female BALB/c mouse [2]; listed as compound 2", "result": "significantly reduces"}, {"measurement": "histopathological changes / histopathology score", "setting": "female BALB/c mouse [2]; listed as compound 2", "result": "ameliorates; also recorded: significantly reduces"}, {"measurement": "IL-4 expression", "setting": "female BALB/c mouse [2]", "result": "reduced"}, {"measurement": "IL-4 expression", "setting": "female BALB/c mouse [2]; listed as compound 2", "result": "impacts IL-4 expression"}, {"measurement": "dermatitis severity scores", "setting": "female BALB/c mouse [2]", "result": "Significantly Reduces; also recorded: dose dependent decrease"}, {"measurement": "dermatitis severity scores", "setting": "female BALB/c mouse [2]; listed as compound 2", "result": "dose dependent decrease"}, {"measurement": "efficacy compared with oral JAK-i", "setting": "female BALB/c mouse [3]", "result": "Efficacy On-Par with Oral JAK-i"}, {"measurement": "dermatitis severity scores", "setting": "female BALB/c mouse [3]", "result": "significant dose dependent decrease in dermatitis severity scores on-par with oral JAK-i"}, {"measurement": "dermatitis severity scores", "setting": "female BALB/c mouse [3]; listed as compound 2", "result": "significantly reduces dermatitis severity scores on-par with oral JAK-i"}, {"measurement": "dermatitis erythema scores", "setting": "female BALB/c mouse [4]", "result": "dose dependent decrease"}, {"measurement": "dermatitis scaling scores", "setting": "female BALB/c mouse [4]", "result": "dose dependent decrease"}, {"measurement": "dermatitis erythema scores", "setting": "female BALB/c mouse [4]; listed as compound 2", "result": "significantly reduces"}, {"measurement": "dermatitis scaling scores", "setting": "female BALB/c mouse [4]; listed as compound 2", "result": "significantly reduces"}]}
